Measurements as given in patent US11883387B2, “PqsR inverse agonists” (HELMHOLTZ-ZENTRUM FÜR INFEKTIONSFORSCHUNG GMBH, priority 2018, dated 2024).

Legend:
[1] = target: PqsR (Pseudomonas aeruginosa, UniProt Q9I4X0); assay: E. coli based β-galactosidase reporter gene assay (PqsR inverse agonistic activity); type: cell-based; parameters: expressed in transfected cells; host or cells: Escherichia coli DH5α
Summary of the method: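 E. coli DH5α carrying pEAL08-2 (tac-driven pqsR with pqsA-lacZ) was grown to OD600 0.2 and incubated with 0.001–10 μM compound plus 50 nM PQS for 2.5 h at 37 °C. β-Galactosidase activity was measured by ONPG conversion in permeabilized cells and normalized between the no-PQS and solvent controls. IC50 came from concentration variation.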

[2] = system: P. aeruginosa pyocyanin production; assay: Pyocyanin assay; type: cell-based, P. aeruginosa PA14; conditions: Pseudomonas aeruginosa, PA14, 16 h, read-out: IC50-value towards pyocyanin production, PA14 in PPGAS medium, 16 h
Experimental: Inhibition of P. aeruginosa pyocyanin production by compounds was determined photometrically as described before.[20] In short, an overnight culture of PA14 in PPGAS medium was washed, diluted in medium to a start OD600 of 0.02, and incubated for 16 h (37° C., 200 rpm, relative humidity 75%) in the presence of test compounds. Then, cultures were extracted with chloroform and re-extracted with 0.2 M HCl. Protonated red colored pyocyanin was determined by measuring OD520 and normalizing to OD600.

[3] = Kinetic Turbidimetric Aqueous Solubility at room temperature for 5 min; type: physicochemical; conditions: PBS buffer, kinetic from dmso stock, 2% DMSO
Experimental: Kinetic Turbidimetric Aqueous Solubility at room temperature for 5 min. Test compound was diluted in PBS buffer to give a range of concentrations (typically 0.4, 2, 4, 20, 40, 100, and 200 μM, final DMSO concentration 2%) and incubated at room temperature for 5 min. Absorbance was measured at a wavelength of 620 nm and the solubility was estimated from the concentration of test compound that produces an increase in absorbance above the vehicle control (i.e., […]). Data was analyzed by fitting a four parameter sigmoidal function to the measured and normalized absorbances and AUC calculation providing access to Log S (decadic logarithm of the solubility).

PqsR, sequence (Q9I4X0 whole entry): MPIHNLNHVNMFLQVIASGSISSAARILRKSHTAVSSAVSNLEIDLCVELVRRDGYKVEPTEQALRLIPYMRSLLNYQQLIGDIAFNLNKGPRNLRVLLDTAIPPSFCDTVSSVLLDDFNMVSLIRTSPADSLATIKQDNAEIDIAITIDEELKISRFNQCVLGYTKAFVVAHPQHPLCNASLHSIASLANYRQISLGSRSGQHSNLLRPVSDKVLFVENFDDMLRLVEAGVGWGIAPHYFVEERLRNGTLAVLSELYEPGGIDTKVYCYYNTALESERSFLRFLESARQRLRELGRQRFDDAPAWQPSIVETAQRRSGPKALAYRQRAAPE

Compound	IC50 [1]	IC50 [2]	solubility at 5 min [3]
CC(C)Oc1ccc(-n2cc(CNc3ccnc(C(F)(F)F)c3)nn2)cc1Cl [Compound 036, N-((1-(3-Chloro-4-isopropoxyphenyl)-1H-1,2,3-triazol-4-yl)methyl)-2-(trifluoromethyl)pyridin-4-amine]	≤ 50 nM	≤ 250 nM	> 25 µM
CC(C)Oc1ccc(-n2cc(CNc3cc(Cl)nc(C(F)(F)F)c3)nn2)cc1Cl [Compound 042, 2-Chloro-N-((1-(3-chloro-4-isopropoxyphenyl)-1H-1,2,3-triazol-4-yl)methyl)-6-(trifluoromethyl)pyridin-4-amine]	≤ 50 nM	≤ 250 nM	> 10 µM
FC(F)(F)c1cc(NCc2cn(-c3ccc(OC4CCC4)c(Cl)c3)nn2)ccn1 [Compound 047, N-((1-(3-chloro-4-cyclobutoxyphenyl)-1H-1,2,3-triazol-4-yl)methyl)-2-(trifluoromethyl)pyridin-4-amine]	≤ 50 nM	≤ 250 nM	> 25 µM
N#Cc1cc(NCc2cn(-c3ccc(Oc4ccccc4)cc3)nn2)cc(Cl)n1 [Compound 051, 6-Chloro-4-(((1-(4-phenoxyphenyl)-1H-1,2,3-triazol-4-yl)methyl)amino)picolinonitrile]	≤ 50 nM	≤ 250 nM	> 50 µM
COc1ccc(-c2ncc(CNc3ccnc(C(F)(F)F)c3)s2)cc1C [Compound 074, N-((2-(4-Methoxy-3-methylphenyl)thiazol-5-yl)methyl)-2-(trifluoromethyl)pyridin-4-amine]	51 to 250 nM	251 to 1000 nM	> 25 µM
FC(F)(F)c1cc(NCc2ncc(-c3ccc(Oc4ccccc4)cc3)s2)ccn1 [Compound 078, N-((5-(4-Phenoxyphenyl)thiazol-2-yl)methyl)-2-(trifluoromethyl)pyridin-4-amine]	≤ 50 nM	≤ 250 nM	> 10 µM
FC(F)(F)c1cc(NCc2nnc(-c3ccc(Oc4ccccc4)cc3)[nH]2)ccn1 [Compound 095, N-((5-(4-Phenoxyphenyl)-4H-1,2,4-triazol-3-yl)methyl)-2-(trifluoromethyl)pyridin-4-amine]	51 to 250 nM	251 to 1000 nM	> 25 µM
FC(F)(F)c1cc(NCc2cc(-c3ccc(Oc4ccccc4)cc3)n[nH]2)ccn1 [Compound 096, N-((3-(4-Phenoxyphenyl)-1H-pyrazol-5-yl)methyl)-2-(trifluoromethyl)pyridin-4-amine]	51 to 250 nM	251 to 1000 nM	> 10 µM
COc1ccc(-c2ccc(CNc3ccnc(C(F)(F)F)c3)nc2)cc1Cl [Compound 104, N-((5-(3-Chloro-4-methoxyphenyl)pyridin-2-yl)methyl)-2-(trifluoromethyl)pyridin-4-amine]	51 to 250 nM	1000 to 5000 nM	> 10 µM
FC(F)(F)c1cc(NCc2cnc(-c3ccc(C4CC4)cc3)nc2)ccn1 [Compound 107, N-((2-(4-Cyclopropylphenyl)pyrimidin-5-yl)methyl)-2-(trifluoromethyl)pyridin-4-amine]	51 to 250 nM	251 to 1000 nM	> 10 µM
FC(F)(F)c1cc(SCc2ccc(-c3ccc(Cl)nc3)cn2)ccn1 [Compound 112, 6-Chloro-6′-(((2-(trifluoromethyl)pyridin-4-yl)thio)methyl)-3,3′-bipyridine]	51 to 250 nM	1000 to 5000 nM	> 25 µM
FC(F)(F)c1cc(SCc2nc3cc(Cl)c(Cl)cc3[nH]2)ccn1 [Compound 119, 5,6-Dichloro-2-(((2-(trifluoromethyl)pyridin-4-yl)thio)methyl)-1H-benzo[d]imidazole]	51 to 250 nM	1000 to 5000 nM	> 25 µM
N#Cc1cc(SCc2nc3cc(Oc4ccccc4)ccc3[nH]2)ccn1 [Compound 175, 4-(((5-phenoxy-1H-benzo[d]imidazol-2-yl)methyl)thio)picolinonitrile]	–	251 to 1000 nM	> 25 µM
